Data from article PMC12888861, “Antibacterial activity of enmetazobactam against Acinetobacter spp.: a molecular dissection of mechanism of action and resistance determinants” (Antimicrobial Agents and Chemotherapy, 2025).
Converted amounts (≈) assume the structure as drawn.

How the values were obtained:
[1] = tested on: carbapenem-resistant CHDL-producing A. baumannii isolates (OXA-23, OXA-24/40, OXA-58); experiment: Checkerboard synergy assay (FIC index); type: cell-based, Acinetobacter baumannii; conditions: Acinetobacter baumannii, checkerboard sulbactam x enmetazobactam, alone or in presence of the partner
Protocol: Checkerboard assays were performed to assess synergistic interactions between the cefepime/enmetazobactam combination and sulbactam, as well as between enmetazobactam alone and either sulbactam or colistin. […] The assays were conducted with three multidrug-resistant A. baumannii isolates from the Spanish Multicenter Collection, each producing a different OXA-type carbapenemase: OXA-23, OXA-24/40, or OXA-58. The FIC index was calculated and interpreted as follows: FICindex ≤ 0.5, synergy; FICindex > 0.5–4, no synergy; and FICindex > 4, antagonism ([33], [34]).

[2] = tested on: carbapenem-resistant A. baumannii (CRAB) isolates (n = 67); experiment: MIC, broth microdilution (EUCAST), carbapenem-resistant A. baumannii isolates; type: cell-based, Acinetobacter baumannii; conditions: for MIC: Acinetobacter baumannii
Description: The bacterial strains used in this study comprised 208 clinical isolates from the Spanish National Acinetobacter spp. 2020 Multicenter Collection, which was previously characterized in detail by our research group, including whole-genome sequencing, phylogenetics studies, clonal dynamics, and resistance mechanisms ([2], [29]). Additionally, a collection of A. baumannii ATCC 17978 transformants coding the blaOXA-23, blaOXA-24/40, blaOXA-51, blaOXA-58, blaOXA-143, and blaOXA-201 genes, previously constructed and described by our group ([30]), was used to determine the activity of enmetazobactam against strains carrying the main CHDLs of A. baumannii.
The antimicrobial susceptibility of the 208 Acinetobacter spp. isolates was assessed using the broth microdilution method, as described in the European Committee on Antimicrobial Susceptibility Testing (EUCAST) v.15 guidelines (http://www.eucast.org/clinical_breakpoints). […] MICs for enmetazobactam alone were assessed as well. […] Subsequently, MIC testing was also conducted with a collection of A. baumannii ATCC 17978 transformants expressing clinically relevant OXA-like carbapenemase genes.
The A. baumannii ATCC 19606 strain was used as the reference strain in all susceptibility experiments, in duplicate assays. Antibiotics were purchased from Sigma-Aldrich, except enmetazobactam and durlobactam, which were obtained from Advanz Pharma and MedChemExpress, respectively.

Q: With `CC1(C)[C@H](C(=O)O)N2C(=O)C[C@H]2S1(=O)=O` [sulbactam] as the molecule, how does the MIC ([1]; isolate Ab4 (OXA-23)) read?
A: The MIC was 16 µg/mL.

Q: And the MIC ([1]; isolate Ab138 (OXA-58))?
A: Its MIC is 8 µg/mL.

Q: What about the MIC ([1]; isolate Ab180 (OXA-24/40)) of the same molecule?
A: Its MIC is 2 µg/mL.

Q: And the “MIC distribution ≥64” value [2]?
A: Its value is 100%.

Q: What about the MIC ([2]; MBC set, isolate Ab4, A. baumannii ST 2, ADC-30, OXA-66, ISAba1-OXA-23) of the same molecule?
A: Its MIC is 16 µg/mL (≈ 68.6 µM).

Q: What about the MIC ([2]; MBC set, isolate Ab6, A. baumannii ST 2, ADC-30, OXA-66, ISAba1-OXA-23, TEM-12) of the same molecule?
A: The MIC was 16 µg/mL (≈ 68.6 µM).

Q: And the MIC ([2]; MBC set, isolate Ab9, A. baumannii ST 2, ADC-30, OXA-66, OXA-23, TEM-12)?
A: The MIC was 4 µg/mL (≈ 17.1 µM).

Q: What about the MIC ([2]; isolate Ab56, ST 1, ADC-75, OXA-69, OXA-23, ETZ fixed 8 mg/L in combinations) of the same molecule?
A: Its MIC is 8 µg/mL.

Q: And the MIC ([2]; isolate Ab83, ST 25, ADC-5, OXA-64, OXA-23, DUR fixed at 4 mg/L in combinations)?
A: The MIC was 32 µg/mL.

Q: And the MIC ([2]; isolate Ab83, ST 25, ADC-5, OXA-64, OXA-23, ETZ fixed 8 mg/L in combinations)?
A: Its MIC is 32 µg/mL.

Q: What about the MIC ([2]; isolate Ab109, ST 1, ADC-75, OXA-69, OXA-23, DUR fixed at 4 mg/L in combinations) of the same molecule?
A: Its MIC is 16 µg/mL.

Q: What about the MIC ([2]; isolate Ab109, ST 1, ADC-75, OXA-69, OXA-23, ETZ fixed 8 mg/L in combinations) of the same molecule?
A: The MIC was 16 µg/mL.

Q: And the MIC ([2]; isolate Ab133, ST 2, ADC-30, OXA-66, OXA-58, TEM-12, DUR fixed at 4 mg/L in combinations)?
A: Its MIC is 32 µg/mL.

Q: And the MIC ([2]; isolate Ab133, ST 2, ADC-30, OXA-66, OXA-58, TEM-12, ETZ fixed 8 mg/L in combinations)?
A: The MIC was 32 µg/mL.

Q: What about the MIC ([2]; isolate Ab134, ST 2, ADC-30, OXA-66, OXA-58, TEM-12, DUR fixed at 4 mg/L in combinations) of the same molecule?
A: Its MIC is 32 µg/mL.

Q: And the MIC ([2]; isolate Ab134, ST 2, ADC-30, OXA-66, OXA-58, TEM-12, ETZ fixed 8 mg/L in combinations)?
A: Its MIC is 32 µg/mL.

Q: What about the MIC ([2]; isolate Ab137, ST 85, ADC-2, OXA-94, OXA-23, DUR fixed at 4 mg/L in combinations) of the same molecule?
A: Its MIC is 16 µg/mL.

Q: And the MIC ([2]; isolate Ab137, ST 85, ADC-2, OXA-94, OXA-23, ETZ fixed 8 mg/L in combinations)?
A: Its MIC is 16 µg/mL.

Q: And the MIC ([2]; isolate Ab138, ST 745, ADC-30, OXA-66, OXA-58, DUR fixed at 4 mg/L in combinations)?
A: The MIC was 4 µg/mL.

Q: What about the MIC ([2]; isolate Ab138, ST 745, ADC-30, OXA-66, OXA-58, ETZ fixed 8 mg/L in combinations) of the same molecule?
A: The MIC was 8 µg/mL.

Q: What about the MIC ([2]; isolate Ab140, ST 85, ADC-2, OXA-94, OXA-23, DUR fixed at 4 mg/L in combinations) of the same molecule?
A: Its MIC is 16 µg/mL.

Q: What about the MIC ([2]; isolate Ab140, ST 85, ADC-2, OXA-94, OXA-23, ETZ fixed 8 mg/L in combinations) of the same molecule?
A: Its MIC is 16 µg/mL.

Q: What about the MIC ([2]; isolate Ab141, ST 745, ADC-30, OXA-66, OXA-58, DUR fixed at 4 mg/L in combinations) of the same molecule?
A: The MIC was 8 µg/mL.

Q: And the MIC ([2]; isolate Ab141, ST 745, ADC-30, OXA-66, OXA-58, ETZ fixed 8 mg/L in combinations)?
A: The MIC was 8 µg/mL.

Q: What about the MIC ([2]; isolate Ab144, ST 745, ADC-30, OXA-66, OXA-58, DUR fixed at 4 mg/L in combinations) of the same molecule?
A: The MIC was 8 µg/mL.

Q: What about the MIC ([2]; isolate Ab144, ST 745, ADC-30, OXA-66, OXA-58, ETZ fixed 8 mg/L in combinations) of the same molecule?
A: The MIC was 8 µg/mL.

Q: And the MIC ([2]; isolate Ab169, ST 2, ADC-30, OXA-66, OXA-23, DUR fixed at 4 mg/L in combinations)?
A: The MIC was 16 µg/mL.

Q: And the MIC ([2]; isolate Ab169, ST 2, ADC-30, OXA-66, OXA-23, ETZ fixed 8 mg/L in combinations)?
A: Its MIC is 16 µg/mL.

Q: And the MIC ([2]; isolate Ab171, ST 2, ADC-30, OXA-66, OXA-23, DUR fixed at 4 mg/L in combinations)?
A: Its MIC is 16 µg/mL.

Q: What about the MIC ([2]; isolate Ab171, ST 2, ADC-30, OXA-66, OXA-23, ETZ fixed 8 mg/L in combinations) of the same molecule?
A: The MIC was 16 µg/mL.

Q: And the MIC ([2]; isolate Ab173, ST 2, ISAba1-ADC-30, OXA-66, OXA-23, DUR fixed at 4 mg/L in combinations)?
A: Its MIC is 32 µg/mL.

Q: And the MIC ([2]; isolate Ab173, ST 2, ISAba1-ADC-30, OXA-66, OXA-23, ETZ fixed 8 mg/L in combinations)?
A: The MIC was 32 µg/mL.

Q: And the MIC ([2]; isolate Ab174, ST 2, ADC-30, OXA-66, OXA-23, DUR fixed at 4 mg/L in combinations)?
A: Its MIC is 16 µg/mL.

Q: What about the MIC ([2]; isolate Ab174, ST 2, ADC-30, OXA-66, OXA-23, ETZ fixed 8 mg/L in combinations) of the same molecule?
A: The MIC was 16 µg/mL.

Q: What about the MIC ([2]; isolate Ab179, ST 2, ADC-30, OXA-66, OXA-23, DUR fixed at 4 mg/L in combinations) of the same molecule?
A: The MIC was 16 µg/mL.

Q: What about the MIC ([2]; isolate Ab179, ST 2, ADC-30, OXA-66, OXA-23, ETZ fixed 8 mg/L in combinations) of the same molecule?
A: The MIC was 16 µg/mL.

Q: What about the MIC ([2]; isolate Ab180, ST 2, ADC-30, OXA-66, OXA-24/40, DUR fixed at 4 mg/L in combinations) of the same molecule?
A: The MIC was 4 µg/mL.

Q: What about the MIC ([2]; isolate Ab180, ST 2, ADC-30, OXA-66, OXA-24/40, ETZ fixed 8 mg/L in combinations) of the same molecule?
A: Its MIC is 4 µg/mL.

Q: What about the MIC ([2]; isolate Ab181, ST 2, ADC-30, OXA-66, OXA-23, DUR fixed at 4 mg/L in combinations) of the same molecule?
A: Its MIC is 16 µg/mL.

Q: And the MIC ([2]; isolate Ab181, ST 2, ADC-30, OXA-66, OXA-23, ETZ fixed 8 mg/L in combinations)?
A: Its MIC is 16 µg/mL.

Q: What about the MIC ([2]; isolate Ab182, ST 2, ADC-30, OXA-66, OXA-23, DUR fixed at 4 mg/L in combinations) of the same molecule?
A: The MIC was 8 µg/mL.

Q: And the MIC ([2]; isolate Ab182, ST 2, ADC-30, OXA-66, OXA-23, ETZ fixed 8 mg/L in combinations)?
A: Its MIC is 8 µg/mL.
